From patent US20210283035A1, “AN ANTIMICROBIAL COMPOSITION” (Conopco, Inc., d/b/a UNILEVER, priority 2016, published 2021)

Tested on: Malassezia furfur
Experiment: ΣFIC assay against Malassezia furfur (in-vitro susceptibility testing, alamar blue)
Type: cell-based
Settings: CBS1878, active alone, M. furfur CBS 1878 in Pityrosporum Broth, 32° C., complete growth inhibition by alamar blue, read-out: Minimum Inhibition Concentration (MIC)
Method: A brief description of the method is given below.
Methods: ΣFIC Assay Against Malassezia furfur
They are then incubated at 32° C. for 48 hrs with shaking. Then, 1 ml of the first broth culture is transferred into 9 ml of fresh PB and incubated at 32° C. for 48 hrs with shaking. The final culture should contain 2 to 6×10^6 cells/ml. This is achieved by diluting using PB to 5*10^5 cell/ml.
Binary combinations of ZPTO and the testing compound were prepared in 96-well plate by mixing 20 μl of zinc pyrithione solution with 20 μl of testing compound. The solution in each well were further mixed with 160 μl of PB and 20 μl of M. furfur. The final cell density in the testing plate is around 5*10^4 cell/ml, and the final concentration of actives in each well of the 96-wel plate were shown below.
The plate was incubated at 32° C. for one day. Then 20 μl of alamar blue (0.01%) was added into each well with a further incubation for one day to observe the color change. Red color indicates microbial growth and the non-changing blue color indicates no growth.
The MIC is defined as the absolute lowest concentration of active that provides complete microbial growth inhibition as indicated by the blue color of alamar blue under the tested condition. […]

Structure (SMILES)	MIC
O=C(c1ccc(O)cc1O)c1ccc(O)cc1O [benzophenone-2]	1000 µg/mL
O=C(c1ccccc1)c1ccc(O)cc1O [benzophenone-1]	500 µg/mL
